This note sets out measurements from article PMC2467525 (Acta Crystallographica Section D: Biological Crystallography, 2008).

This test addresses PvlArgDC (pyruvoyl-dependent arginine decarboxylase) (Methanocaldococcus jannaschii, UniProt Q57764). The test is described as follows: X-ray crystal structure, […] A. It counts as binding. The conditions noted are these: cocrystallized with 1-2 mM arginine, pH 6.7-7.3, 295 K; agmatine in all six active sites.

Sequence of PvlArgDC (pyruvoyl-dependent arginine decarboxylase) (Q57764 53-165): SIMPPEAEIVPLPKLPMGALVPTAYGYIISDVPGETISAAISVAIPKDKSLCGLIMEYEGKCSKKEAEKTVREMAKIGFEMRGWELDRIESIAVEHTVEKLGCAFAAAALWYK
Sequence of PvlArgDC (pyruvoyl-dependent arginine decarboxylase) (Q57764 1-52): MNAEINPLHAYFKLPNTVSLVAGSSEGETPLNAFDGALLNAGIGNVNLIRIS

On to `N=C(N)NCCCCN` [agmatine], for which the “X-ray crystal structure, 2.0 A” value was “all six protomers were fully processed and contained the product agmatine at the active site”.
